How the values were obtained:
Type in all cases: in vivo
[1] = test system: Polyphagotarsonemus latus; test: Polyphagotarsonemus latus test; outdoor spray treatment (HEMTLA) on aubergine plants; conditions: S. melongena, 100 g of ai/ha, Dat 16
Experimental: (§1) To produce an appropriate active ingredient formulation, 1 part by weight of active ingredient is mixed with the stated amounts of water to the desired concentration. Added to the spray liquor is 0.1% a.i. Crovol.
Three aubergine plants (Solanum melongena) infested by all stages of the broad mite (Polyphagotarsonemus latus) are sprayed with an active ingredient formulation of each desired concentration. A spray application with a water application rate of 500 l/Ha is conducted in each case.
(§2) After the desired time, the remaining mites per leaf are counted and calculated as the efficacy by the Abbott formula: […]

[2] = test system: Polyphagotarsonemus latus; test: Polyphagotarsonemus latus test; outdoor spray treatment (HEMTLA) on bell pepper plants; conditions: Capsicum annuum, 100 g of ai/ha
Experimental: as §1
Three bell pepper plants (Capsicum annuum) infested by all stages of the broad mite (Polyphagotarsonemus latus) are sprayed with an active ingredient formulation of each desired concentration. A spray application with a water application rate of 500 l/Ha is conducted in each case.
as §2

[3] = test system: Tetranychus urticae; test: Tetranychus urticae test; outdoor spray treatment (TETRUR) on aubergine plants; conditions: S. melongena
Experimental: as §1
Three aubergine plants (Solanum melongena) infested by all stages of the red spider mite (Tetranychus urticae) are sprayed with an active ingredient formulation of each desired concentration. One spray application is conducted in each case.
as §2

[4] = test system: Polyphagotarsonemus latus; test: Polyphagotarsonemus latus test; outdoor spray treatment (HEMTLA) on chilli plants; conditions: C. frutescens
Experimental: as §1
Three chilli plants (Capsicum frutescens) infested by all stages of the broad mite (Polyphagotarsonemus latus) are sprayed with an active ingredient formulation of each desired concentration. A spray application with a water application rate of 458 l/Ha is conducted in each case.
as §2

[5] = test system: Tetranychus urticae; test: Tetranychus urticae test; outdoor spray treatment (TETRUR) on cotton plants; conditions: G. hirsutum
Experimental: as §1
Three cotton plants (Gossypium hirsutum) infested by all stages of the red spider mite (Tetranychus urticae) are sprayed with an active ingredient formulation of each desired concentration. One spray application is conducted in each case.
After the desired time, the remaining mites per leaf are counted and calculated as the efficacy by the Abbott formula:
[formula] • B=treated plots • K=untreated control plots

[6] = test system: Polyphagotarsonemus latus; test: Polyphagotarsonemus latus test; outdoor spray treatment (HEMTLA) on bean plants; conditions: Ph. vulgaris, three sprays at 7-day intervals
Experimental: as §1
Three bean plants (Phaseolus vulgaris) infested by all stages of the broad mite (Polyphagotarsonemus latus) are sprayed with an active ingredient formulation of each desired concentration. Each plant is treated three times at 7-day intervals with a spray application with a water application rate of 200 l/Ha. The juncture of treatment of the plants with the first spray application X corresponds to the start point of the evaluation (Dat=0) (Dat=days after treatment). The further treatments were effected after 7 days (spray application Y), the third treatment after 14 days (spray application Z).
as §2

[7] = 100 g of ai/ha (+Crovol 0.1%), Dat 7
[8] = 100 g of ai/ha (+Crovol 0.1%), Dat 14
[9] = 100 g of ai/ha (+Crovol 0.1%), Dat 21
[10] = 75 g of ai/ha (+Crovol 0.1%), Dat 7

For `Cn1nc(C(F)(F)C(F)(F)F)c(C(F)(F)F)c1C(=O)Nc1ccc(Cl)c(C(=O)NCc2ccccc2)c1` [Compound (I)], the “Efficacy (% Abbott)” value [1] was 100 % Abbott, the “Efficacy (% Abbott)” value ([2]; Dat 3) was 100 % Abbott and the “Efficacy (% Abbott)” value ([2]; Dat 7) was 99.8 % Abbott. For the same compound, the “Efficacy (% Abbott)” value ([2]; Dat 15) was 95.9 % Abbott, the “Efficacy (% Abbott)” value ([2]; Dat 21) was 85.5 % Abbott and the “Efficacy (% Abbott)” value ([3]; 100 g of ai/ha (+Crovol 0.1%), Dat 5) was 99 % Abbott. For the same compound, the “Efficacy (% Abbott)” value [3, 7] was 100 % Abbott, the “Efficacy (% Abbott)” value [3, 8] was 100 % Abbott and the “Efficacy (% Abbott)” value [3, 9] was 99 % Abbott. For the same compound, the “Efficacy (% Abbott)” value ([3]; 100 g of ai/ha (+Crovol 0.1%), Dat 29) was 99 % Abbott, the “Efficacy (% Abbott)” value [4, 10] was 63 % Abbott and the “Efficacy (% Abbott)” value ([4]; 75 g of ai/ha (+Crovol 0.1%), Dat 14) was 67 % Abbott. For the same compound, the “Efficacy (% Abbott)” value ([4]; 75 g of ai/ha (+Crovol 0.1%), Dat 21) was 50 % Abbott, the “Efficacy (% Abbott)” value [4, 7] was 75 % Abbott and the “Efficacy (% Abbott)” value [4, 8] was 75 % Abbott. For the same compound, the “Efficacy (% Abbott)” value [4, 9] was 83 % Abbott, the “Efficacy (% Abbott)” value ([5]; 100 g of ai/ha (+Crovol 0.1%), Dat 4) was 100 % Abbott and the “Efficacy (% Abbott)” value ([5]; 100 g of ai/ha (+Crovol 0.1%), Dat 6) was 100 % Abbott. The “Efficacy (% Abbott)” value ([6]; 75 g of ai/ha (+Crovol 0.1%), Dat 3) was 72 % Abbott, the “Efficacy (% Abbott)” value [6, 10] was 80.7 % Abbott and the “Efficacy (% Abbott)” value ([6]; 75 g of ai/ha (+Crovol 0.1%), Dat 14 (Y)) was 81.2 % Abbott. For the same compound, the “Efficacy (% Abbott)” value ([6]; 75 g of ai/ha (+Crovol 0.1%), Dat 21 (Z)) was 79.2 % Abbott, the “Efficacy (% Abbott)” value ([6]; 75 g of ai/ha (+Crovol 0.1%), Dat 28) was 49.7 % Abbott and the “Efficacy (% Abbott)” value ([6]; 100 g of ai/ha (+Crovol 0.1%), Dat 3) was 81.4 % Abbott. The “Efficacy (% Abbott)” value ([6]; 100 g of ai/ha (+Crovol 0.1%), Dat 7 (Y)) was 91.5 % Abbott, the “Efficacy (% Abbott)” value ([6]; 100 g of ai/ha (+Crovol 0.1%), Dat 14 (Z)) was 90 % Abbott and the “Efficacy (% Abbott)” value [6, 9] was 91.9 % Abbott. The “Efficacy (% Abbott)” value ([6]; 100 g of ai/ha (+Crovol 0.1%), Dat 28) was 52.7 % Abbott.
`Cc1nn(C)c(/C(OC(=O)C(C)(C)C)=C(\C#N)c2ccc(C(C)(C)C)cc2)c1C` [Cyenopyrafen, reference compound] was tested, and the “Efficacy (% Abbott)” value ([4]; 150 g of ai/ha, Dat 7) was 28 % Abbott, the “Efficacy (% Abbott)” value ([4]; 150 g of ai/ha, Dat 14) was 45 % Abbott and the “Efficacy (% Abbott)” value ([4]; 150 g of ai/ha, Dat 21) was 0 % Abbott. For the same compound, the “Efficacy (% Abbott)” value ([5]; 150 g of ai/ha, Dat 4) was 98 % Abbott, the “Efficacy (% Abbott)” value ([5]; 150 g of ai/ha, Dat 6) was 99 % Abbott and the “Efficacy (% Abbott)” value ([6]; 150 g of ai/ha, Dat 3) was 83.7 % Abbott. The “Efficacy (% Abbott)” value ([6]; 150 g of ai/ha, Dat 7 (Y)) was 63.8 % Abbott, the “Efficacy (% Abbott)” value ([6]; 150 g of ai/ha, Dat 14 (Z)) was 48.5 % Abbott and the “Efficacy (% Abbott)” value ([6]; 150 g of ai/ha, Dat 21) was 58.1 % Abbott. For the same compound, the “Efficacy (% Abbott)” value ([6]; 150 g of ai/ha, Dat 28) was 0 % Abbott.
`CCC(C)(C)C(=O)OC1=C(c2ccc(Cl)cc2Cl)C(=O)OC12CCCCC2` [Spirodiclofen, reference compound] was tested, and the “Efficacy (% Abbott)” value ([3]; 48 g of ai/ha, Dat 5) was 63 % Abbott, the “Efficacy (% Abbott)” value ([3]; 48 g of ai/ha, Dat 7) was 89 % Abbott and the “Efficacy (% Abbott)” value ([3]; 48 g of ai/ha, Dat 14) was 97.5 % Abbott. For the same compound, the “Efficacy (% Abbott)” value ([3]; 48 g of ai/ha, Dat 21) was 95 % Abbott and the “Efficacy (% Abbott)” value ([3]; 48 g of ai/ha, Dat 29) was 80 % Abbott.
For `CC(C)(C)c1ccc(CCOc2ncnc3ccccc23)cc1` [Fenazaquin, reference compound], the “Efficacy (% Abbott)” value [1] was 97.9 % Abbott, the “Efficacy (% Abbott)” value ([2]; Dat 3) was 92.3 % Abbott and the “Efficacy (% Abbott)” value ([2]; Dat 7) was 96 % Abbott. The “Efficacy (% Abbott)” value ([2]; Dat 15) was 77.4 % Abbott and the “Efficacy (% Abbott)” value ([2]; Dat 21) was 33.5 % Abbott.

From patent US20150245611A1, “ACTIVE INGREDIENT FOR CONTROLLING TRUE SPIDER MITES” (BAYER CROPSCIENCE AG, priority 2014, published 2015)
